Reference: US20240425457A1, “COMPOSITIONS AND METHODS FOR SUPPRESSING AND/OR TREATING METABOLIC DISEASES AND/OR A CLINICAL CONDITION THEREOF” (CK Biotech Inc., priority 2018, published 2024)
Converted amounts (≈) assume the structure as drawn. “Also recorded” adds a separate entry of the source.

Tests used:
[1] = solubility of A3334 in oil or surfactants (LC/MS/MS); type: physicochemical; settings: 37 °C, thermodynamic from solid
Experimental: To determine emulsion solution, solubility of A3334, for example, is measured in the several oil and surfactants. A3334 is mixed with oil or surfactants (1 ml) and vortexed for 30 min. The equilibrium state was reached by shaking for 72 hours at 37° C. with 50 rpm speed in an incubator, then centrifuged at 16,100×g for 5 min. The supernatant was diluted with methanol and analyzed by LC/MS/MS (see e.g., Table 7).
‘Waters xevo TQ MS-ACQUITY UPLC System’ is used as an analyses equipment. ACQUITY UPLC® BEH(C18, 1.7 μm, 2.1×50 mm) column was used for analyses at room temperature. Mobile phase is used after filtration of deionized distilled water including 0.1% formic acid and acetonitrile including 0.1% formic acid (30:70, v/v) with […] membrane filter. The flow rate is 0.25 ml/min and it is analyzed by injection of 0.5 μl sample. There are LC/MS/MS conditions for Decursin analysis; Cone 38 V, Collison 32 V. Precursor ion and daughter ion are monitored 329 and 229 m/z, respectively.

[2] = tested on: HFD-induced diabetes mice; assay: HFD-induced diabetes mice, A3334 versus rosiglitazone, one 5-day course; type: in vivo
Excerpt: Referring now to FIG. 37A-37E, C57BL/6N mice were fed HFD for 8 weeks to induce diabetes. Then, the mice were maintained on HFD and treated with either 25 mpk A3334 or 25 mpk rosiglitazone (RSG) once per day for next 5 days. Then, the mice were maintained HFD condition without any drug treatments (e.g., A3334 or RSG) for the next several weeks. Rosiglitazone (RSG) is a diabetes drug in thiazolidinedione (TZD) class which works as an insulin sensitizer functioning via binding PPAR in fat cells.
Referring now to FIG. 45A-45F, C57BL/6N mice were induced diabetes by HFD for 8 weeks, and then treated with A3334 (25 mpk) or RSG (25 mpk) once per day for 5 days starting at week 8 under HFD condition. Animals were sacrificed at week 11.

db/db diabetes mice = assay: db/db diabetes mice; type: in vivo; settings: 1 and 2 weeks of treatment
[3] = tested on: HFD+STZ-induced diabetes mice; assay: HFD-fed and STZ-induced diabetes mice; type: in vivo
Excerpt: Animals. The generation of Cxxc5^−/− mice has been described previously. Cxxc5 heterozygous mice were intercrossed for four generations to obtain littermate wild-type and Cxxc5^−/− mice and were maintained on a C57BL/6 background. Six-week-old Cxxc5^+/+ and Cxxc5^−/− mice were fed HFD for 8 weeks. Wild-type male C57BL/6 mice (KOATECH, Seoul, Korea) were fed HFD consisting of 60% calories from fat (Research Diet, D12492) for 8 weeks. To validate that the insulin resistance mouse model was successfully established, fasting glucose levels were assessed with a One Touch Ultra glucometer (LifeScan). Subsequently, each HFD-fed mouse with a fasting glucose level higher than 16.7 mmol/L was orally administered A3334 (25 mg kg^−1), sitagliptin (50 mg kg^−1), or metformin (100 mg kg^−1) each day for 5 days at weeks 8 and 12. After the removal of the drugs, mice were maintained for 3 weeks on the HFD. To monitor pancreas regeneration, six-week-old Cxxc5^+/+ and Cxxc5^−/− mice were fed an HFD as above. After dietary treatment for 4 weeks, the mice were intraperitoneally injected with STZ (50 mg/kg/d) for 1 week and the control group were injected with saline. After 2 weeks, Cxxc5^+/+ mice were administered A3334 (25 mg kg^−1) and sitagliptin (50 mg kg^−1) per day by oral gavage for 4 weeks. For GTT or ITT, mice were injected with D-glucose (1.5 g/kg body weight) after overnight starvation or human insulin (0.75 units/kg body weight) after 4 h starvation, respectively. Tail blood was drawn at 0, 15, 30, 60, 120, 180 min intervals and blood glucose level was measured with a One Touch Ultra glucometer. All mice were maintained under temperature-controlled and light-controlled (standard 12 h light/dark cycle) conditions and provided with food and water ad libitum. All protocols were reviewed and approved by the Institutional Review Board of Severance Hospital, Yonsei University College of Medicine (09-013).
β-Cell and α-cell mass analyses. All of the β-cell, α-cell and the cross-sectional area of all pancreatic tissue were quantified. Total β-cell and α-cell area and total pancreas mass for each animal was calculated as the sum of the determinations from each of the 8-10 segments of pancreas. A total of 10-15 beta cells was counted for each pancreas.
A3334 suppressed diabetes induced by multiple low-dose STZ-induced diabetes. Referring now to FIG. 40A-40G, C57BL/6N mice were induced diabetes by HFD for 8 weeks, and induced diabetes by injection of 50 mpk streptozotosin (STZ) for 1 week. After 2 weeks, A3334 (25 mpk) or SITA (25 mpk) was applied for 4 more weeks, histological analyses of pancreas were done.

[4] = 25 mpk, 5 days from week 8, sacrifice week 11
[5] = HFD 8 weeks, then 25 mpk once per day for 5 days

## COc1ccc2c(c1)/C(=C1/Nc3ccccc3/C1=N\O)C(=O)N2 [Compound A3334, 5-Methoxyindirubin-3′-oxime]
[1]; oil or lipid, Oil: Olive oil
  solubility at 72 h: 830 µg/mL (≈ 2.7 mM)
[1]; oil or lipid, Oil: Sunflower oil
  solubility at 72 h: 1350 µg/mL (≈ 4.39 mM)
[1]; organic solvent or mixture, Co-Surfactant: Propylene glycol
  solubility at 72 h: 250 µg/mL (≈ 0.814 mM)
[1]; organic solvent or mixture, Co-Surfactant: Transcutor P
  solubility at 72 h: 1150 µg/mL (≈ 3.74 mM)
[1]; KOLLIPHOR EL (listed as oil), aqueous with cosolvent or surfactant or cyclodextrin, Oil: KOLLIPHOR EL
  solubility at 72 h: 5400 µg/mL (≈ 17.6 mM)
[1]; PEG 400 (co-surfactant), organic solvent or mixture, Co-Surfactant: PEG 400
  solubility at 72 h: 3100 µg/mL (≈ 10.1 mM)
[1]; Tween 20 (surfactant), aqueous with cosolvent or surfactant or cyclodextrin, Surfactants: Tween 20
  solubility at 72 h: 4580 µg/mL (≈ 14.9 mM)
[1]; Tween 80 (surfactant), aqueous with cosolvent or surfactant or cyclodextrin, Surfactants: Tween 80
  solubility at 72 h: 4920 µg/mL (≈ 16 mM)
[2]; [4]
  liver steatosis: suppressed by A3334
  mRNA levels of lipogenesis markers in liver: suppressed by A3334
  serum insulin and total cholesterol levels: abolished by A3334
[2]; [5]
  ALT and AST in blood serum: not evident
  GTT and ITT: significant reduction of both GTT and ITT
  body weight gain: suppressed the body weight gain induced by HFD
  fasting glucose level after termination of drug treatment: maintained at low level for several weeks
[2]; HFD 8 weeks, then 25 mpk once per day for 5 days, immunostaining
  CXXC5, β-catenin, crown like structures, PPARγ and macrophage markers: suppressed overexpression of CXXC5, increased expressions of β-catenin, suppressed formation of crown like structures (CRC), and suppressed the expression of PPARγ and macrophage markers
[2]; white adipose tissue, 25 mpk
  PPARγ mRNA level: not increased by A3334
  mRNA of M1 and M2 macrophage markers: decreased and increased by A3334, respectively
  mRNA of Wnt/β-catenin signaling target genes (Dvl1, Wisp1, Fosl1): increased by A3334
db/db diabetes mice
  fasting glucose level: reduces fasting glucose levels
[3]
  body weight: slightly increased
  proliferative status of β-cells (PCNA+): exhibited normal proliferative status after the A3334 treatment
[3]; 4 weeks p.o.
  glucose tolerance test and insulin tolerance test: improved the results from the glucose tolerance test (GTT) and insulin tolerance test (ITT)
[3]; A3334 25 mpk, SITA 25 mpk, 4 weeks
  blood / fasting glucose level: lowered the glucose level; also recorded: more significantly lowered by A3334 compared to that by SITA
[3]; IHC insulin and glucagon
  β-cell and α-cell mass: increased and decreased, respectively, by the A3334 treatment
[3]; histology/IHC
  pancreatic islets / β-cells (insulin, β-catenin, PCNA, Pdx-1): restores β-cell mass and functions; also recorded: showed normal islets with insulin secretion and increased expression levels of β-catenin, PCNA, and Pdx-1; also recorded: mostly protected with the A3334 treatment
